Data on 15 compounds can be found in ChEMBL document CHEMBL6078651, “Tyrosinase Inhibitory Properties of Compounds Isolated from Artocarpus integer Roots” (J Nat Prod, 2024).

The structures appear in SMILES notation. Calls of active or inactive are those of the source. No cut-off for these calls is given here.

The target in the assay is Mushroom tyrosinase (Agaricus bisporus) (UniProt O42713+Q00024+C7FF04+C7FF05). Briefly: Inhibition of mushroom tyrosinase using L-DOPA as substrate at 50 uM preincubated for 10 mins followed by substrate addition measured after 20 mins by spectrophotometry. It is filed as protein assay. The conditions noted are these: time 30.0 min.
Take `C=C(C)C1Cc2c(oc3cc(OC)cc(O)c3c2=O)-c2c(O)cc(OC)c(O)c21` (stereo not given): the inhibition result was “inactive”.

Regarding `C=C(C)c1cc2c(=O)c3c(O)c(CC=C(C)C)c(O)c(C/C=C(\C)CCC=C(C)C)c3oc2c2c1[C@](O)(C(=O)OC)CC2=O`, the inhibition entry was “inactive”.

For `COc1cc2c(c3c1[C@H](C(C)(C)O)CC[C@@H]3c1ccc(O)cc1O)C=CC(C)(C)O2`, the inhibition result was “inactive”.

Take `C=CC(C)(C)/C=C/c1ccc(O)cc1`: the inhibition result is “inactive”.

As for `C=C(C)c1cc2c(=O)c3c(O)c4c(c(CC=C(C)C)c3oc2c2c1[C@](O)(C(=O)OC)CC2=O)OC(C)(C)C=C4`, the inhibition entry is “inactive”.

For `CC(C)c1cc2c(O)cc(-c3cc4ccc(O)cc4o3)cc2o1`, the inhibition result is “inactive”.

Regarding `COc1cc(O)c2c(=O)c3c(oc2c1)-c1cc(O)c(OC)cc1OC3C=C(C)C` (stereo not given), the inhibition entry is “inactive”.

For `COc1cc2c(cc1O)-c1oc3cc(O)cc(O)c3c(=O)c1C(C=C(C)C)O2` (stereo not given), the inhibition entry was “inactive”.

Regarding `CC(C)=CCc1c2c(c(O)c3c(=O)c4c(oc13)-c1c(O)cc(O)c3c1C(C4)C(C)(C)O3)C=CC(C)(C)O2` (stereo not given), the inhibition entry is “inactive”.

With `C=C(C)c1cc2c(=O)c3c(O)c4c(c(C/C=C(\C)CCC=C(C)C)c3oc2c2c1[C@](O)(C(=O)OC)CC2=O)OC(C)(C)C=C4`, the inhibition result is “inactive”.

On to `COc1cc2c(c3oc(-c4cc(O)cc(O)c4)cc13)C=CC(C)(C)O2`, for which the inhibition entry is “inactive”.

Regarding `CC(C)=CCC/C(C)=C/Cc1c2c(c(O)c3c(=O)c4c(oc13)-c1c(O)cc(O)c3c1C(C4)C(C)(C)O3)C=CC(C)(C)O2` (stereo not given), the inhibition entry was “inactive”.

For the compound `CC(C)=CC1Oc2cc(O)ccc2-c2oc3cc(O)cc(O)c3c(=O)c21` (stereo not given), the inhibition result was “inactive”.

As to `CC(C)=CCC/C(C)=C/Cc1c2c(c(O)c3c(=O)c(CC=C(C)C)c(-c4cc(C)c(O)cc4O)oc13)C=CC(C)(C)O2`, the inhibition result was “inactive”.

As to `COc1cc(O)c2c(c1)O[C@H](c1cc(OC)c(OC)cc1OC)CC2=O`, the inhibition entry is “inactive”.
